Measured values taken from ChEMBL document CHEMBL5579814, “Analogues of the pan-selectin antagonist rivipansel (GMI-1070)” (Eur J Med Chem, 2024).

How the values were obtained:
[1] = target: T1, E-selectin (Homo sapiens, UniProt P16581); assay: Binding affinity to E-selectin SCR2 domain (unknown origin) by isothermal titration calorimetry
T1 sequence (P16581 whole entry): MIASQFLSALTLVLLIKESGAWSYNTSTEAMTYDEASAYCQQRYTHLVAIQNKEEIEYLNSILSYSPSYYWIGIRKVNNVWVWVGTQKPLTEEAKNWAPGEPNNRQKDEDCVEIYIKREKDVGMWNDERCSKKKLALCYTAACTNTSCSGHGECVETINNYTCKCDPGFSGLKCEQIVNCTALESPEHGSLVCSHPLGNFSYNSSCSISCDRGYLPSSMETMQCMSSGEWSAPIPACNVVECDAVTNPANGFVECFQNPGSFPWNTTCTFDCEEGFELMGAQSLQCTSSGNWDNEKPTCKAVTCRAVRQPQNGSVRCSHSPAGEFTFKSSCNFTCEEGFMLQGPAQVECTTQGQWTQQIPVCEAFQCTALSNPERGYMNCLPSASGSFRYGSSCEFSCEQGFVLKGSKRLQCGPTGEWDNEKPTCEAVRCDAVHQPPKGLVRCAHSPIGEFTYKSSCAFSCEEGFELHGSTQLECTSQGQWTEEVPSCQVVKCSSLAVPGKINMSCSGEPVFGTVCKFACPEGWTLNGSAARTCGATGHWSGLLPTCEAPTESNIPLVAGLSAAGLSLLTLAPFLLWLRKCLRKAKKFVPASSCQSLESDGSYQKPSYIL

[2] = Inhibition of horseradish peroxidase coupled sialyl Lewisa-polyacrylamide polymer binding to human P-selectin/IgG chimera measured after 2 hrs in presence of TMB by colorimetric assay
[3] = target: T1, E-selectin; assay: Binding affinity to sialyl LewisX mimetic 21a pretreated Blue-NHS-labelled E-selectin Lec-EGF/SCR1/SCR2 domain (unknown origin) measured after 20 mins by microscale thermophoresis

Row | Kd [1] [µM] | IC50 [2] [µM] | Kd [3] [µM] | SMILES
1 | 60.7 |  |  | C[C@@H]1O[C@@H](O[C@@H]2CCCC[C@H]2O[C@@H]2O[C@H](CO)[C@H](O)[C@H](O[C@@H](CC3CCCCC3)C(=O)O)[C@H]2O)[C@@H](O)[C@H](O)[C@@H]1O
2 |  | 82 |  | CC[C@H]1C(C(=O)NCCCc2cn(CCCC(=O)Nc3cc(S(=O)(=O)O)cc4cc(S(=O)(=O)O)cc(S(=O)(=O)O)c34)nn2)CC[C@@H](O[C@@H]2O[C@H](CO)[C@H](O)[C@H](O[C@@H](CC3CCCCC3)C(=O)O)[C@H]2OC(=O)c2ccccc2)[C@@H]1O[C@@H]1O[C@@H](C)[C@@H](O)[C@@H](O)[C@@H]1O (stereo partly drawn)
3 |  | 3390 |  | COC(=O)[C@@H]1C[C@H](NC(=O)c2cc(=O)[nH]c(=O)[nH]2)[C@@H](O[C@@H]2O[C@@H](C)[C@@H](O)[C@@H](O)[C@@H]2O)[C@H](O[C@@H]2O[C@H](CO)[C@H](O)[C@H](O[C@@H](CC3CCCCC3)C(=O)O)[C@H]2OC(=O)c2ccccc2)C1
4 |  | 210 |  | CC[C@H]1C(C(=O)NCCCc2cn(CCCCC(=O)Nc3cc(S(=O)(=O)O)cc4cc(S(=O)(=O)O)cc(S(=O)(=O)O)c34)nn2)CC[C@@H](O[C@@H]2O[C@H](CO)[C@H](O)[C@H](O[C@@H](CC3CCCCC3)C(=O)O)[C@H]2OC(=O)c2ccccc2)[C@@H]1O[C@@H]1O[C@@H](C)[C@@H](O)[C@@H](O)[C@@H]1O (stereo partly drawn)
5 |  | ≥ 7000 | 738 | CO[C@@H]1O[C@H](CO)[C@@H](O[C@@H]2O[C@H](CO)[C@H](O)[C@H](O[C@]3(C(=O)O)C[C@H](O)[C@@H](NC(C)=O)[C@H]([C@H](O)[C@H](O)CO)O3)[C@H]2O)[C@H](O[C@@H]2O[C@@H](C)[C@@H](O)[C@@H](O)[C@@H]2O)[C@H]1NC(C)=O
6 |  | 94 |  | CC[C@@H]1[C@@H](O[C@@H]2O[C@@H](C)[C@@H](O)[C@@H](O)[C@@H]2O)[C@H](O[C@@H]2O[C@H](CO)[C@H](O)[C@H](O[C@@H](CC3CCCCC3)C(=O)O)[C@H]2OC(=O)c2ccccc2)CC[C@@H]1C(=O)NCCCc1cn(CCC(=O)Nc2cc(S(=O)(=O)O)cc3cc(S(=O)(=O)O)cc(S(=O)(=O)O)c23)nn1
7 |  | 423 |  | C[C@@H]1O[C@@H](O[C@@H]2[C@@H](NC(=O)c3cc(=O)[nH]c(=O)[nH]3)C[C@@H](C(=O)NCCNC(=O)COCCOCC(=O)Nc3cc(S(=O)(=O)O)cc4cc(S(=O)(=O)O)cc(S(=O)(=O)O)c34)C[C@H]2O[C@@H]2O[C@H](CO)[C@H](O)[C@H](O[C@@H](CC3CCCCC3)C(=O)O)[C@H]2OC(=O)c2ccccc2)[C@@H](O)[C@H](O)[C@@H]1O [RIVIPANSEL]
